Like-named read-outs stand apart in the source and are kept apart here. Residues, ends and D or L forms follow the SMILES beside them.
What was measured:
[1] = test system: E. coli LUH15117; format: cell-based; details: for LC99.9 E. coli LUH15117 RPMI 2 h: LUH15117, 2 h
Description: (§1) The bacterial strains used in this study included S. aureus JAR060131 [54] and the MDR ESKAPE pathogens Enterococcus faecium LUH15122, S. aureus LUH14616, Klebsiella pneumoniae LUH15104, A. baumannii RUH875 [55], Pseudomonas aeruginosa LUH15103, Enterobacter cloacae LUH15114, and the colistin-resistant Escherichia coli LUH15117. Before each experiment, bacteria from frozen stocks were cultured at 37 °C for 18–24 h on sheep blood agar plates (BioMérieux, Marcy-l’Étoile, France). All strains were then cultured from colonies either in tryptic soy broth (TSB; Oxoid, Basingstoke, UK) for A. baumannii, S. aureus, and E. faecium, or in brain heart infusion broth (BHI; Oxoid) for K. pneumoniae, P. aeruginosa, E. cloacae, and E. coli at 37 °C with shaking at 120 rpm for 18–24 h. Subsequently, bacteria were cultured to mid-logarithmic phase in the media described above at 37 °C with shaking at 120 rpm for 3 h. Bacteria were then washed twice with PBS and diluted to the required inoculum suspension concentration in Roswell Park Memorial Institute (RPMI)-1640 medium containing 20 mM HEPES and L-glutamine but without sodium bicarbonate (Sigma-Aldrich; hereafter referred to as RPMI), based on optical density at 620 nm. RPMI was selected because it supports bacterial growth without impairing AMP activity.
(§2) Bactericidal activity was assessed as described by de Breij et al.. Briefly, mid-logarithmic phase bacterial cultures were diluted to a final concentration of 1 × 10^7 colony-forming units (CFU)/mL in RPMI. Then, 10 µL was added to a final volume of 100 µL in RPMI (final concentration: 1 × 10^6 CFU/mL). Cultures were exposed to peptides either in RPMI or RPMI supplemented with 50% (v/v) human plasma (hereafter referred to as 50% plasma), obtained from four healthy volunteers after informed consent, frozen after collection, and pooled (Sanquin, Amsterdam, The Netherlands). Assays were performed in duplicate using round-bottom polypropylene microtiter plates (Costar, Arlington, VA, USA) and repeated three times. In the initial screening phase (Table 1, Table 2 and Table S1), peptide solutions of 1, 10, and 100 μM (final concentration) were tested against A. baumannii RUH875 and S. aureus JAR060131 in RPMI and in 50% plasma. After this selection process, two lead candidates, their RI variants, and reference peptides were tested with a final concentration range of 0.12 to 120 µM (two-fold dilutions) in RPMI and in 50% plasma (Table 3). The peptides were also tested against ESKAPE pathogens, with Synthetic Antimicrobial and Antibiofilm Peptide (SAAP)-148 as a reference peptide (Table 4).RPMI or 50% plasma served as no-treatment controls. After 2 and 18 h of incubation at 37 °C with shaking at 120 rpm in a humidified environment, the numbers of viable bacteria were quantified. Bactericidal activity was expressed as the lethal concentration 99.9% (LC99.9), defined as the lowest peptide concentration that killed ≥99.9% of bacteria within 2 h (LC99.9_2h) or 18 h (LC99.9_18h) compared to the initial inoculum.

[2] = test system: S. aureus LUH14616; format: cell-based; details: for LC99.9 S. aureus LUH14616 50% Plasma 2 h / LC99.9 S. aureus LUH14616 RPMI 2 h: LUH14616, 2 h; for LC99.9 S. aureus LUH14616 50% Plasma 18 h / LC99.9 S. aureus LUH14616 RPMI 18 h: LUH14616, 18 h
Description: as §1, §2

[3] = test system: A. baumannii RUH875; test: SYTOX Green membrane permeabilization assay; format: cell-based, Acinetobacter baumannii; details: RPMI, 1 μM SYTOX Green; for SYTOX fluorescence intensity, A. baumannii: 1- and 2-fold the LC99.9_2h concentrations, over 90 min; for Concentrations inducing membrane permeabilization / SYTOX uptake: 90 min, 37 °C
Description: (§3) Control samples were exposed to RPMI only. As a positive control, heat-killed bacteria were incubated at 95 °C for 10 min to induce maximum membrane permeabilization. Fluorescence (excitation: 485 nm, emission: 520 nm) was monitored every minute for 90 min at 37 °C using a […] plate reader (Ortenberg, Germany), with peptides and positive controls added after the third cycle. Background fluorescence (SYTOX Green alone) was subtracted from all values. All assays were performed in triplicate and repeated twice independently.

[4] = test system: S. aureus JAR060131; test: 3D human skin equivalent (HSE) infection model; format: cell-based, Staphylococcus aureus; details: for Concentration eradicating adherent S. aureus in HSE / Concentration giving significant reductions in adherent S. aureus in HSE: adherent fraction; for Concentration giving significant reductions in adherent S. aureus in HSE: p < 0.001
Description: Human keratinocytes (Ker-CT cell line; ATCC CRL-4048; RRID: CVCL_S877; ATCC, Manassas, VA, USA (October 2017)) were used to generate human skin equivalents (HSEs) following the method described by Gent et al.. Briefly, HSEs were cultured for 12 days, after which the culture medium was replaced with antibiotic-free medium, and cells were grown for an additional two days before infection (Figure S2). On the day of infection, HSEs were inoculated with 300 µL of S. aureus JAR060131 suspension (3 × 10^5 CFU) and incubated for 1 h at 37 °C with 5% CO2. Following incubation, the bacterial suspension was removed, and HSEs were washed once with 500 µL PBS. HSEs were then treated for 4 h with PBS (control), GDST-038, GDST-045, their RI variants, or the reference peptide SAAP-148 at concentrations of 3.75, 15, and 60 μM, in triplicate. Subsequently, supernatants containing planktonic (non-adherent) bacteria were collected and kept on ice. Peptide activity was neutralized by adding SPS (final concentration: 0.025% (v/v)). Adherent bacteria within HSEs were quantified by homogenizing the tissues in 0.5 mL PBS containing 0.025% (v/v) SPS, using five zirconia beads (Ø 2 mm; BioSpec Products, Bartlesville, OK, USA) in a MagNA Lyser System (Roche) for three cycles of 30 sec at 7000 rpm, with 30 sec cooling intervals on ice. Both supernatants and homogenized fractions were serially diluted, plated on blood agar, and incubated overnight at 37 °C to determine CFU counts.

[5] = test system: S. aureus JAR060131
Description: (§4) Bacteria incubated in PBS alone served as no-treatment controls. At five time points (1, 2, 5, 30, and 120 min), duplicate 50 µL samples were taken and immediately mixed with 50 µL of 0.05% (v/v) sodium polyanethol sulfonate (SPS; Sigma-Aldrich) in PBS to neutralize residual peptide activity. The number of viable bacteria was quantified by plating 10 µL aliquots of serial 10-fold dilutions onto sheep blood agar plates. Colonies were counted after 24 h of incubation at 37 °C.

[6] = test system: S. aureus JAR060131; test: SYTOX Green membrane permeabilization assay; format: cell-based, Staphylococcus aureus; details: for Time to rise in SYTOX fluorescence intensity after peptide addition, S. aureus: at both sublethal and lethal concentrations; for Concentrations causing rapid rise in SYTOX fluorescence, S. aureus: RPMI, 1 μM SYTOX Green, 90 min, 37 °C
Description: as §3

[7] = test system: MDR ESKAPE pathogens; test: Bactericidal activity (LC99.9), statements for the whole panel; format: cell-based; details: for Concentrations killing ESKAPE pathogens in 50% plasma within 2 h / Concentrations killing ESKAPE pathogens in 50% plasma after 18 h / Concentrations killing ESKAPE pathogens in RPMI within 2 h: range over species; for Concentrations required for E. cloacae, S. aureus and P. aeruginosa in 50% plasma within 2 h: range over the three species
Description: as §1, §2

[8] = test system: A. baumannii RUH875
Description: as §4

[9] = 4 h peptide exposure, tested 3.75, 15, 60 μM
[10] = at all tested concentrations (3.75 µM, 15 µM, and 60 µM), 4 h

Compound | LC99.9 E. coli LUH15117 RPMI 2 h [1] [µM] | LC99.9 E. coli LUH15117 RPMI 18 h ([1]; LUH15117, 18 h) [µM] | LC99.9 S. aureus LUH14616 50% Plasma 2 h [2] [µM] | LC99.9 S. aureus LUH14616 RPMI 2 h [2] [µM] | LC99.9 S. aureus LUH14616 50% Plasma 18 h [2] [µM] | LC99.9 S. aureus LUH14616 RPMI 18 h [2] [µM] | SYTOX fluorescence intensity, A. baumannii [3] | Concentration eradicating adherent S. aureus in HSE [4, 9] [µM] | Effect on non-adherent S. aureus in HSE [4, 10] | Time to complete killing of S. aureus ([5]; 1.88 μM) [min] | Time to rise in SYTOX fluorescence intensity after peptide addition, S. aureus [6] [min] | Concentrations killing ESKAPE pathogens in 50% plasma within 2 h [7] [µM] | Concentrations killing ESKAPE pathogens in 50% plasma after 18 h ([7]; 18 h) [µM] | Concentrations killing ESKAPE pathogens in RPMI within 2 h [7] [µM] | Concentration giving significant reductions in adherent S. aureus in HSE ([4]; 4 h) [µM] | Effect on non-adherent S. aureus in HSE ([4]; at 15 µM and 60 µM, 4 h) | Time to complete killing of A. baumannii ([8]; 3.75 μM) [min] | Time to complete killing of S. aureus ([5]; 3.75 μM) [min] | Concentrations causing rapid rise in SYTOX fluorescence, S. aureus [6] [µM] | Concentrations required for E. cloacae, S. aureus and P. aeruginosa in 50% plasma within 2 h [7] [µM] | other results
Ac-KRWVKILKKVWRFL-NH2 [GDST-045] | 0.94 | 0.94 | 15 | 0.94 | 1.88 | 0.94 | fluorescence levels similar to heat-killed controls | 15 | completely eradicated | ≤ 2 | ≤ 1 | 0.94 to 120 | 0.94 to 30 | 0.94 to 15 |  |  |  |  |  |  | 
CC[C@@H](C)[C@@H](NC(=O)[C@@H](C)NC(=O)[C@@H](CCCCN)NC(=O)[C@@H](CCCCN)NC(=O)[C@@H](Cc1c[nH]c2ccccc12)NC(=O)[C@@H](Cc1c[nH]c2ccccc12)NC(=O)[C@@H](CCCNC(=N)N)NC(=O)[C@@H](CC(C)C)NC(=O)[C@@H](CC(C)C)NC(C)=O)C(=O)N[C@H](CCCCN)C(=O)N[C@@H](C(=O)N[C@H](Cc1c[nH]c2ccccc12)C(=O)N[C@H](CCCNC(=N)N)C(=O)N[C@H](CCCCN)C(N)=O)C(C)C [GDST-038-RI] (HELM PEPTIDE1{[ac].[dL].[dL].[dR].[dW].[dW].[dK].[dK].[dA].[dI].[dK].[dV].[dW].[dR].[dK].[am]}$$$$V2.0; N-terminus and C-terminus assumed) | 3.75 | 0.94 | 30 |  |  | 0.47 | fluorescence levels similar to heat-killed controls |  |  |  |  |  |  |  | 60 | significant bacterial reductions | 120 | ≤ 2 | 1.88 to 3.75 | 30 to 60 | 
Ac-KRWVKIAKKWWRLL-NH2 [GDST-038] | 0.94 |  | 7.5 | 0.94 | 0.94 | 0.94 | fluorescence levels similar to heat-killed controls | 15 | completely eradicated | ≤ 5 | ≤ 1 |  |  |  |  |  |  |  |  | 30 to 60 | LC99.9 E. coli LUH15117 RPMI 18 h ([1]; colistin-resistant strain, RPMI, 18 h, median of three independent experiments): 1.88 µM; Concentrations inducing membrane permeabilization / SYTOX uptake [3]: 0.47 µM; Time to complete killing of A. baumannii ([8]; 1.88 μM): ≤ 5 min; Killing of A. baumannii within 5 min ([8]; 1.88 μM, PBS, 5 min): > 90%; Killing of S. aureus within 5 min ([5]; 1.88 μM, PBS, 5 min): > 90%
CC[C@@H](C)[C@@H](NC(=O)[C@@H](CC(C)C)NC(=O)[C@@H](CCCCN)NC(=O)[C@@H](CCCCN)NC(=O)[C@H](NC(=O)[C@@H](Cc1c[nH]c2ccccc12)NC(=O)[C@@H](CCCNC(=N)N)NC(=O)[C@@H](Cc1ccccc1)NC(=O)[C@@H](CC(C)C)NC(C)=O)C(C)C)C(=O)N[C@H](CCCCN)C(=O)N[C@@H](C(=O)N[C@H](Cc1c[nH]c2ccccc12)C(=O)N[C@H](CCCNC(=N)N)C(=O)N[C@H](CCCCN)C(N)=O)C(C)C [GDST-045-RI] (HELM PEPTIDE1{[ac].[dL].[dF].[dR].[dW].[dV].[dK].[dK].[dL].[dI].[dK].[dV].[dW].[dR].[dK].[am]}$$$$V2.0; N-terminus and C-terminus assumed) | 3.75 | 1.88 | 15 | 0.94 | 1.88 | 0.94 | fluorescence levels similar to heat-killed controls |  |  |  |  | 0.94 to 120 | 0.94 to 30 | 0.94 to 15 | 15 | significant bacterial reductions | ≤ 120 | ≤ 30 | 1.88 to 3.75 |  | 
Ac-LKRVWKRVFKLLKRYWRQLKKPVR-NH2 (N-terminus and C-terminus assumed) [SAAP-148, reference compound] |  |  |  |  |  |  |  | 60 |  |  |  |  |  |  |  |  |  |  | 0.23 to 1.88 |  | Concentrations inducing membrane permeabilization / SYTOX uptake [3]: 0.47 to 3.75 µM; CFU reduction of non-adherent S. aureus in HSE ([4]; 15 µM, 4 h, non-adherent fraction): 3 log CFU; Concentration reducing non-adherent S. aureus to below the detection limit in HSE ([4]; non-adherent fraction, 4 h peptide exposure, tested 3.75, 15, 60 μM): 60 µM; Reduction in activity in plasma after 18 h ([7]; 50% plasma vs RPMI, 18 h, except E. cloacae, A. baumannii, K. pneumoniae): 8 to 16 fold

— publication PMC12649225, “Machine Learning-Identified Potent Antimicrobial Peptides Against Multidrug-Resistant Bacteria and Skin Infections” (Antibiotics, 2025)
